Experimental data reported in patent US20230139171A1 (SITA Information Networking Computing UK Limited, priority 2019, published 2023).

Assays:
[1] = biological target: T1, human TLR8 (Homo sapiens, UniProt Q9NR97); assay: TLR8 inhibition reporter assay (HEK-Blue cells, SEAP reporter, R848 stimulation); assay type: cell-based; conditions: HEK-Blue cells overexpressing human TLR8, SEAP reporter, R848 15.9 μM; read-out: TLR8 IC50
T1 construct: host or cells: HEK-Blue cells
T1 sequence (Q9NR97 27-1041): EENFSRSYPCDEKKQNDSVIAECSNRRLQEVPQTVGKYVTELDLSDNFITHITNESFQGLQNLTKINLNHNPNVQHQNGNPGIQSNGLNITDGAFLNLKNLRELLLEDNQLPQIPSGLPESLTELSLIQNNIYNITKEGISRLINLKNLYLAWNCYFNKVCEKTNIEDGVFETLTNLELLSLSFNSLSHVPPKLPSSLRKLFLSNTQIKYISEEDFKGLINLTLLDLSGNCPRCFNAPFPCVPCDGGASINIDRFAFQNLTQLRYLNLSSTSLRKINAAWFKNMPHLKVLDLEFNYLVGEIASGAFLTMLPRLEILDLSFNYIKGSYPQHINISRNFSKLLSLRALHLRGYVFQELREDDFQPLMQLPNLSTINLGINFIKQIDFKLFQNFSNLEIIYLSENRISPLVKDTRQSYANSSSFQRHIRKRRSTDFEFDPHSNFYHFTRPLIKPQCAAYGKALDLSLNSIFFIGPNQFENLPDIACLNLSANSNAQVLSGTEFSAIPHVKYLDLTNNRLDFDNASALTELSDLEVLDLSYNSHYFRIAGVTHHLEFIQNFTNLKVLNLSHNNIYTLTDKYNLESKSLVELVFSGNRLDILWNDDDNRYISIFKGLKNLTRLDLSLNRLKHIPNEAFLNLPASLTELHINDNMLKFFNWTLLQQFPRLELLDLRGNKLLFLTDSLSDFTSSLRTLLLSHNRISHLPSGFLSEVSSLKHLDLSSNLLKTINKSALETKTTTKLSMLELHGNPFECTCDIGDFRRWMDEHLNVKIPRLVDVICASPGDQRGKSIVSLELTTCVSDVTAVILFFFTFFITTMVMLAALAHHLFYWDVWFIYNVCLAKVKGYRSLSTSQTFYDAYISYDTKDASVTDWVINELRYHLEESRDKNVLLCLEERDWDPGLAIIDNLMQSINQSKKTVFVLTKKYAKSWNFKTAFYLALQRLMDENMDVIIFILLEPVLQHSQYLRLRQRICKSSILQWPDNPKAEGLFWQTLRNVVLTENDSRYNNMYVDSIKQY
Experimental: (§1) TLR7/8/9 Inhibition Reporter Assays
(§2) HEK-Blue™-cells (Invivogen) overexpressing human TLR7, TLR8 or TLR9 receptors were used for screening inhibitors of these receptors using an inducible SEAP (secreted embryonic alkaline phosphatase) reporter gene under the control of the IFN-β minimal promoter fused to five NF-κB and AP-1-binding sites. Briefly, cells are seeded into Greiner 384 well plates (15000 cells per well for TLR7, 20,000 for TLR8 and 25,000 for TLR9) and then treated with test compounds in DMSO to yield a final dose response concentration range of 0.05 nM-50 μM. After a 30 minute compound pre-treatment at room temperature, the cells are then stimulated with a TLR7 ligand (gardiquimod at a final concentration of 7.5 μM), TLR8 ligand (R848 at a final concentration of 15.9 μM) or TLR9 ligand (ODN2006 at a final concentration of 5 nM) to activate NF-κB and AP-1 which induce the production of SEAP. After a 22 hour incubation at 37° C., 5% CO2, SEAP levels are determined with the addition of HEK-Blue™ Detection reagent (Invivogen), a cell culture medium that allows for detection of SEAP, according to manufacturer's specifications. The percent inhibition is determined as the % reduction in the HEK-Blue signal present in wells treated with agonist plus DMSO alone compared to wells treated with a known inhibitor.

[2] = biological target: T2, human TLR7 (Homo sapiens, UniProt Q9NYK1); assay: TLR7 inhibition reporter assay (HEK-Blue cells, SEAP reporter, gardiquimod stimulation); assay type: cell-based; conditions: HEK-Blue cells overexpressing human TLR7, SEAP reporter, gardiquimod 7.5 μM; read-out: TLR7 IC50
T2 construct: host or cells: HEK-Blue cells
T2 sequence (Q9NYK1 27-1049): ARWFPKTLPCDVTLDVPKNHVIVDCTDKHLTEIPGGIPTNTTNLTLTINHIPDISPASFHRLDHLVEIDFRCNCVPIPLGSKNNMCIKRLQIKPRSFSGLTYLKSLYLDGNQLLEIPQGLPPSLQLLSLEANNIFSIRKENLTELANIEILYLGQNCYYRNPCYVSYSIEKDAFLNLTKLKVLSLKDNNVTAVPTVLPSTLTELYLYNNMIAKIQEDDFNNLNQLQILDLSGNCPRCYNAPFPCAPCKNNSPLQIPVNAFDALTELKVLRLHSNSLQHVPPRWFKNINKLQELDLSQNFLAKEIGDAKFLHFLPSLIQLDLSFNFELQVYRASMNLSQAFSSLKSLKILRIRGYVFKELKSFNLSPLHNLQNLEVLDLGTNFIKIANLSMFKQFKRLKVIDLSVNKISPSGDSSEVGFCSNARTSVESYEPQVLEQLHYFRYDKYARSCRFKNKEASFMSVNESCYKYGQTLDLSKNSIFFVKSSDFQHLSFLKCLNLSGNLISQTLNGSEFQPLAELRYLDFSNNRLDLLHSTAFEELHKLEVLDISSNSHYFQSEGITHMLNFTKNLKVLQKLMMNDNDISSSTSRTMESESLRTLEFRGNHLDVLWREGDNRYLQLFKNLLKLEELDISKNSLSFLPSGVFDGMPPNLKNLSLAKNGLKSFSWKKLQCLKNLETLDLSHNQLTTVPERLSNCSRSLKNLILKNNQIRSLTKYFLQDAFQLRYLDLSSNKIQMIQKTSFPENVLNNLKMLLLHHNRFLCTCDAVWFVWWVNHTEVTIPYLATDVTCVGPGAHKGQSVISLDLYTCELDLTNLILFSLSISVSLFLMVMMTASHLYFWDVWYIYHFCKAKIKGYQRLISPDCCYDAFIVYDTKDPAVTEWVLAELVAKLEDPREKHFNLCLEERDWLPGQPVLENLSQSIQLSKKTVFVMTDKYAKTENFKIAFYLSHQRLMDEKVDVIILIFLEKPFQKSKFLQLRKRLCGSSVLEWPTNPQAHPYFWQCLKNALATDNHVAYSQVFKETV
Experimental: as §1, §2

Row | IC50 [1] [nM] | IC50 [2] [nM] | SMILES
1 | 3.12 | 23.4 | Cc1c(-c2[nH]c3sc(N4CCN(CC(C)(C)O)C[C@@H]4C)nc3c2C(C)C)cn2ncnc2c1C [Example 345, (S)-1-(4-(5-(7,8-dimethyl-[1,2,4]triazolo[1,5-a]pyridin-6-yl)-6-isopropyl-4H-pyrrolo[3,2-d]thiazol-2-yl)-3-methylpiperazin-1-yl)-2-methylpropan-2-ol]
2 | 44.5 | 22.9 | Cc1c(-c2[nH]c3sc(N4CCN(C(=O)C5CCS(=O)(=O)CC5)C[C@@H]4C)nc3c2C(C)C)cn2ncnc2c1C [Example 347, (S)-(4-(5-(7,8-dimethyl-[1,2,4]triazolo[1,5-a]pyridin-6-yl)-6-isopropyl-4H-pyrrolo[3,2-d]thiazol-2-yl)-3-methylpiperazin-1-yl)(1,1-dioxidotetrahydro-2H-thiopyran-4-yl)methanone]
3 | 22.4 | 19.1 | Cc1c(-c2[nH]c3sc(N4CCN(C5COC5)C[C@@H]4C)nc3c2C(C)C)cn2ncnc2c1C [Example 348, (S)-5-(7,8-dimethyl-[1,2,4]triazolo[1,5-a]pyridin-6-yl)-6-isopropyl-2-(2-methyl-4-(oxetan-3-yl)piperazin-1-yl)-4H-pyrrolo[3,2-d]thiazole]
4 | 1.85 | 91 | Cc1c(-c2[nH]c3sc(N4CCN(C5CCC5)C[C@@H]4C)nc3c2C(C)C)cn2ncnc2c1C [Example 349]
5 | 1330 | 1220 | Cc1cc(-c2[nH]c3sc(N4CCN(C(=O)CN(C)C)C[C@H]4C)nc3c2C(C)C)cn2ncnc12 [Example 360, (R)-2-(dimethylamino)-1-(4-(6-isopropyl-5-(8-methyl-[1,2,4]triazolo[1,5-a]pyridin-6-yl)-4H-pyrrolo[3,2-d]thiazol-2-yl)-3-methylpiperazin-1-yl)ethan-1-one]
6 | 29.4 | 72.1 | Cc1c(-c2[nH]c3sc(C(=O)NCCCN4CCCC4=O)nc3c2C(C)C)cn2ncnc2c1C [Example 371, 5-(7,8-dimethyl-[1,2,4]triazolo[1,5-a]pyridin-6-yl)-6-isopropyl-N-(3-(2-oxopyrrolidin-1-yl)propyl)-4H-pyrrolo[3,2-d]thiazole-2-carboxamide]
7 | 18.2 | 56.9 | Cc1c(-c2[nH]c3sc(C(=O)N4CCCC4)nc3c2C(C)C)cn2ncnc2c1C [Example 377, (5-(7,8-dimethyl-[1,2,4]triazolo[1,5-a]pyridin-6-yl)-6-isopropyl-4H-pyrrolo[3,2-d]thiazol-2-yl)(pyrrolidin-1-yl)methanone]
8 | 12.2 | 29.4 | Cc1c(-c2[nH]c3sc(C(=O)N4CCNC(=O)C4)nc3c2C(C)C)cn2ncnc2c1C [Example 378, 4-(5-(7,8-dimethyl-[1,2,4]triazolo[1,5-a]pyridin-6-yl)-6-isopropyl-4H-pyrrolo[3,2-d]thiazole-2-carbonyl)piperazin-2-one]
9 | 20.1 | 39.5 | Cc1c(-c2[nH]c3sc(C(=O)N4CCN(S(C)(=O)=O)CC4)nc3c2C(C)C)cn2ncnc2c1C [Example 384, (5-(7,8-dimethyl-[1,2,4]triazolo[1,5-a]pyridin-6-yl)-6-isopropyl-4H-pyrrolo[3,2-d]thiazol-2-yl)(4-(methylsulfonyl)piperazin-1-yl) methanone]
10 | 31.4 | 58.8 | Cc1c(-c2[nH]c3sc(C(N)=O)nc3c2C(C)C)cn2ncnc2c1C [Example 385, 5-(7,8-dimethyl-[1,2,4]triazolo[1,5-a]pyridin-6-yl)-6-isopropyl-4H-pyrrolo[3,2-d]thiazole-2-carboxamide]
11 | 481 | 93.6 | COc1cc(-c2[nH]c3sc(C(=O)NCC(F)(F)F)nc3c2C(C)C)cn2ncnc12 [Example 390, 6-isopropyl-5-(8-methoxy-[1,2,4]triazolo[1,5-a]pyridin-6-yl)-N-(2,2,2-trifluoroethyl)-4H-pyrrolo[3,2-d]thiazole-2-carboxamide]
12 | 118 | 102 | Cc1cc(-c2[nH]c3sc(C(N)=O)nc3c2C(C)C)cn2ncnc12 [Example 391, 6-isopropyl-5-(8-methyl-[1,2,4]triazolo[1,5-a]pyridin-6-yl)-4H-pyrrolo[3,2-d]thiazole-2-carboxamide]
13 | 404 | 241 | Cc1cc(-c2[nH]c3sc(C(=O)N4CCNC(=O)C4)nc3c2C(C)C)cn2ncnc12 [Example 392, 4-(6-isopropyl-5-(8-methyl-[1,2,4]triazolo[1,5-a]pyridin-6-yl)-4H-pyrrolo[3,2-d]thiazole-2-carbonyl)piperazin-2-one]
14 | 140 | 77.6 | Cc1cc(-c2[nH]c3sc(C(=O)N4CCCC4)nc3c2C(C)C)cn2ncnc12 [Example 393, (6-isopropyl-5-(8-methyl-[1,2,4]triazolo[1,5-a]pyridin-6-yl)-4H-pyrrolo[3,2-d]thiazol-2-yl)(pyrrolidin-1-yl) methanone]
15 | 529 | 154 | Cc1cc(-c2[nH]c3sc(C(=O)N4CCCOCC4)nc3c2C(C)C)cn2ncnc12 [Example 394, (6-isopropyl-5-(8-methyl-[1,2,4]triazolo[1,5-a]pyridin-6-yl)-4H-pyrrolo[3,2-d]thiazol-2-yl)(1,4-oxazepan-4-yl)methanone]
16 | 53.9 | 102 | COC1CN(C(=O)c2nc3c(C(C)C)c(-c4cc(C)c5ncnn5c4)[nH]c3s2)C1 [Example 396, (6-isopropyl-5-(8-methyl-[1,2,4]triazolo[1,5-a]pyridin-6-yl)-4H-pyrrolo[3,2-d]thiazol-2-yl)(3-methoxyazetidin-1-yl)methanone]
17 | 463 | 221 | Cc1cc(-c2[nH]c3sc(C(=O)NC4COC4)nc3c2C(C)C)cn2ncnc12 [Example 397, 6-isopropyl-5-(8-methyl-[1,2,4]triazolo[1,5-a]pyridin-6-yl)-N-(oxetan-3-yl)-4H-pyrrolo[3,2-d]thiazole-2-carboxamide]
